From US20220267274A1, “TARGETING PTPN22 IN CANCER THERAPY” (The Johns Hopkins University, priority 2019, published 2022)

Tested on: MC38 tumors
Test: MC38 subcutaneous syngeneic tumor model in WT C57Bl/6J mice
Details: LTV1 6 mg/kg/dose, treatment analogous to L1
Experimental: All mice husbandry, experiments, and euthanasia were performed in accordance with Johns Hopkins IACUC approved protocols. WT C57Bl/6J, Balb/cJ, and PTPN22 KO (B6.Cg-Ptpn22tm2Achn/J) mice were purchased from JAX and bred in-house. For syngeneic immunocompetent mouse models, aged-matched 8-12 week old female mice were injected with MC38 (2.5×10^5) or EG7 (2.5×10^5 for rejection and 5×10^5 for treatment) or CT26 (5×10^5) subcutaneously in the right hind limb. […] LTV1 was also dissolved in DMSO and diluted to the same final formulation for administration at 6 mg/kg/dose. Vehicle injections contained 10% DMSO and 5% cremophor-EL in PBS.

Compound: Cc1ccccc1N1C(=O)/C(=C/c2ccc(OCc3cccc(C(=O)O)c3)cc2)C(=O)NC1=S [LTV1]
- MC38 tumor growth compared to vehicle: moderately decreased tumor growth
